Measured values reported in patent US7297700B2, “Bicycloheteroaryl compounds as P2X7 modulators and uses thereof” (Renovis, Inc., priority 2005, dated 2007).

Each compound was assayed on IL-1β release from THP-1 cells (assay: IL-1β Release Assay (Alternate Method), THP-1 cells). Settings: at 0.3 μM; THP-1 cells.
Format: cell-based, human
Method: THP-1 cells (ATCC Cat #285-IF-100) are plated in 96 well plates at a concentration of 200,000 cells per well and allowed to differentiate in RPMI-1640 media (ATCC Cat #30-2001) containing 10% FBS, 100 IU/mL penicillin, 100 ug/mL streptomycin, 100 ng/mL LPS and 100 ng/mL IFN-γ for 16 hours. Following differentiation, the cells are treated for an additional 2 hours in RPMI-1640 media containing 100 IU/mL penicillin, 100 ug/mL streptomycin and fresh LPS at 100 ng/mL. The cells are then pretreated for 30 minutes with the compound of interest at the appropriate concentration in RPMI media containing 100 IU/mL penicillin, 100 ug/mL streptomycin. Following the pretreatment 2′, 3′-O-(4-benzoylbenzoyl)-adenosine 5′-triphosphate (Sigma Aldrich Cat#B6396) is added to a final concentration of 250 uM and the cells incubated for an additional 45 minutes. 30 uL of cell supernatant is then collected and IL-1β levels determined via ELISA (R&D systems Cat. #HSLB50) according to manufacturer's recommendations using the Tecan Safire plate reader. Background adjusted IL-1β levels of drug treated and non-treated cells are used to calculate the percent inhibition.
With O=C(CC12CC3CC(CC(C3)C1)C2)Nc1ncnc2c1CCN(C(=O)c1ccc3c(c1)CCO3)C2 [Compound 309] the IL-1β % inhibition was “++++ (compound exhibited 75% or greater inhibition at 0.3 μM)”.
For O=C(CC12CC3CC(CC(C3)C1)C2)Nc1ncnc2c1CCN(C(=O)C1CCCCC1)C2 [Compound 244], the IL-1β % inhibition was “++ (compound exhibited 25-50% inhibition at 0.3 μM)”.
In the case of Cc1ccc(CN2CCc3c(ncnc3NC(=O)CC3CCCCCC3)C2)s1 [Compound 125], the IL-1β % inhibition is reported as “+ (compound exhibited 0-25% inhibition at 0.3 μM)”.
For O=C(CC12CC3CC(CC(C3)C1)C2)Nc1ncnc2c1CCN(S(=O)(=O)c1ccc(Cl)cc1F)C2 [Compound 202], the IL-1β % inhibition was “++ (compound exhibited 25-50% inhibition at 0.3 μM)”.
In the case of CC(C)(C)C(=O)N1CCc2c(ncnc2NC(=O)CC23CC4CC(CC(C4)C2)C3)C1 [Compound 252], the IL-1β % inhibition is reported as “++ (compound exhibited 25-50% inhibition at 0.3 μM)”.
For CN1CCOc2cc(S(=O)(=O)N3CCc4c(ncnc4NC(=O)CC45CC6CC(CC(C6)C4)C5)C3)ccc21 [Compound 157], the IL-1β % inhibition was “+ (compound exhibited 0-25% inhibition at 0.3 μM)”.
In the case of CN(CCO)c1ccc(CN2CCc3c(ncnc3NC(=O)CC34CC5CC(CC(C5)C3)C4)C2)cc1 [Compound 89], the IL-1β % inhibition is reported as “+ (compound exhibited 0-25% inhibition at 0.3 μM)”.
O=C(CC12CC3CC(CC(C3)C1)C2)Nc1ncnc2c1CCN(Cc1ccc3[nH]ccc3c1)C2 [Compound 64] was tested, and the IL-1β % inhibition was “+ (compound exhibited 0-25% inhibition at 0.3 μM)”.
O=C(CC12CC3CC(CC(C3)C1)C2)Nc1ncnc2c1CCN(S(=O)(=O)c1cc(C(F)(F)F)ccc1Cl)C2 [Compound 181] was tested, and the IL-1β % inhibition was “++ (compound exhibited 25-50% inhibition at 0.3 μM)”.
O=C(CC12CC3CC(CC(C3)C1)C2)Nc1ncnc2c1CCN(CCCc1ccccc1)C2 [Compound 63] was tested, and the IL-1β % inhibition was “+ (compound exhibited 0-25% inhibition at 0.3 μM)”.
O=C(CC12CC3CC(CC(C3)C1)C2)Nc1ncnc2c1CCN(Cc1cccc(C(F)(F)F)c1)C2 [Compound 70] was tested, and the IL-1β % inhibition was “+ (compound exhibited 0-25% inhibition at 0.3 μM)”.
With O=C(CC12CC3CC(CC(C3)C1)C2)Nc1ncnc2c1CCN(C(=O)c1c(F)cccc1Cl)C2 [Compound 272] the IL-1β % inhibition was “++++ (compound exhibited 75% or greater inhibition at 0.3 μM)”.
With CC12CC3CC(C)(C1)CC(CC(=O)Nc1ncnc4c1CCN(S(=O)(=O)c1cccc(F)c1F)C4)(C3)C2 [Compound 381] the IL-1β % inhibition was “+ (compound exhibited 0-25% inhibition at 0.3 μM)”.
With O=C(CC12CC3CC(CC(C3)C1)C2)Nc1ncnc2c1CCN(Cc1ccc(F)cc1C(F)(F)F)C2 [Compound 107] the IL-1β % inhibition was “+ (compound exhibited 0-25% inhibition at 0.3 μM)”.
In the case of O=C(O)C=Cc1ccc(CN2CCc3c(ncnc3NC(=O)CC34CC5CC(CC(C5)C3)C4)C2)cc1 [Compound 115], the IL-1β % inhibition is reported as “+ (compound exhibited 0-25% inhibition at 0.3 μM)”.
In the case of O=C(CC12CC3CC(CC(C3)C1)C2)Nc1ncnc2c1CCN(C(=O)CCc1ccccc1)C2 [Compound 248], the IL-1β % inhibition is reported as “+ (compound exhibited 0-25% inhibition at 0.3 μM)”.
In the case of O=C(CC12CC3CC(CC(C3)C1)C2)Nc1ncnc2c1CCN(C(=O)c1cccnc1Cl)C2 [Compound 222], the IL-1β % inhibition is reported as “+++ (compound exhibited 50-75% inhibition at 0.3 μM)”.
COc1ccc(F)c(CN2CCc3c(ncnc3NC(=O)CC34CC5CC(CC(C5)C3)C4)C2)c1 [Compound 104] was tested, and the IL-1β % inhibition was “+++ (compound exhibited 50-75% inhibition at 0.3 μM)”.
For Cc1c(C(=O)N2CCc3c(ncnc3NC(=O)CC34CC5CC(CC(C5)C3)C4)C2)cnn1-c1ccccc1 [Compound 288], the IL-1β % inhibition was “+ (compound exhibited 0-25% inhibition at 0.3 μM)”.
For O=C(CC12CC3CC(CC(C3)C1)C2)Nc1ncnc2c1CCN(Cc1ccc(F)c(F)c1)C2 [Compound 322], the IL-1β % inhibition was “+ (compound exhibited 0-25% inhibition at 0.3 μM)”.
O=C(CC12CC3CC(CC(C3)C1)C2)Nc1ncnc2c1CCN(Cc1c(F)cccc1C(F)(F)F)C2 [Compound 111] was tested, and the IL-1β % inhibition was “++ (compound exhibited 25-50% inhibition at 0.3 μM)”.
With O=C(CC12CC3CC(CC(C3)C1)C2)Nc1ncnc2c1CCN(C(=O)c1c(Cl)cccc1Cl)C2 [Compound 218] the IL-1β % inhibition was “++++ (compound exhibited 75% or greater inhibition at 0.3 μM)”.
With O=C(CC12CC3CC(CC(C3)C1)C2)Nc1ncnc2c1CCN(Cc1cc(F)cc(C(F)(F)F)c1)C2 [Compound 108] the IL-1β % inhibition was “+ (compound exhibited 0-25% inhibition at 0.3 μM)”.
In the case of CC12CC3CC(C)(C1)CC(CC(=O)Nc1ncnc4c1CCN(C(=O)CC1CCCC1)C4)(C3)C2 [Compound 384], the IL-1β % inhibition is reported as “++ (compound exhibited 25-50% inhibition at 0.3 μM)”.
In the case of CCCS(=O)(=O)N1CCc2c(ncnc2NC(=O)CC23CC4CC(CC(C4)C2)C3)C1 [Compound 147], the IL-1β % inhibition is reported as “++++ (compound exhibited 75% or greater inhibition at 0.3 μM)”.
With Cc1ccc(F)cc1S(=O)(=O)N1CCc2c(ncnc2NC(=O)CC23CC4CC(CC(C4)C2)C3)C1 [Compound 212] the IL-1β % inhibition was “+++ (compound exhibited 50-75% inhibition at 0.3 μM)”.
In the case of CC12CC3(C)CC(C)(C1)CC(C(C)(C)C(=O)Nc1ncnc4c1CCN(Cc1ccccc1)C4)(C2)C3 [Compound 345], the IL-1β % inhibition is reported as “+ (compound exhibited 0-25% inhibition at 0.3 μM)”.

Same assay, conditions: at 0.3 μM; THP-1 cells, BzATP-stimulated
In the case of CC(CN1CCc2c(ncnc2NC(=O)C23CC4CC(CC(C4)C2)C3)C1)c1ccccc1 (stereo not shown) [Compound 554], the IL-1β % inhibition is reported as “++++ (compound exhibited 75% or greater inhibition at 0.3 μM)”.
In the case of N#Cc1ccc(S(=O)(=O)N2CCc3c(ncnc3NC(=O)C34CC5CC(CC(C5)C3)C4)C2)c(Cl)c1 [Compound 500], the IL-1β % inhibition is reported as “+++ (compound exhibited 50-75% inhibition at 0.3 μM)”.
For O=C(c1c(F)cccc1F)N1CCc2c(ncnc2NC(=O)C23CC4CC(CC(C4)C2)C3)C1 [Compound 419], the IL-1β % inhibition was “+ (compound exhibited 0-25% inhibition at 0.3 μM)”.
Cc1ccc(S(=O)(=O)N2CCc3c(ncnc3NC(=O)C34CC5CC(CC(C5)C3)C4)C2)cc1Cl [Compound 541] was tested, and the IL-1β % inhibition was “++++ (compound exhibited 75% or greater inhibition at 0.3 μM)”.
For O=C(Nc1ncnc2c1CCN(S(=O)(=O)c1cccc(OC(F)(F)F)c1)C2)C12CC3CC(CC(C3)C1)C2 [Compound 497], the IL-1β % inhibition was “+ (compound exhibited 0-25% inhibition at 0.3 μM)”.
With Cc1ccc(C(=O)N2CCc3c(ncnc3NC(=O)C34CC5CC(CC(C5)C3)C4)C2)cc1 [Compound 461] the IL-1β % inhibition was “+ (compound exhibited 0-25% inhibition at 0.3 μM)”.
In the case of O=C(c1ccccc1F)N1CCc2c(ncnc2NC(=O)C23CC4CC(CC(C4)C2)C3)C1 [Compound 452], the IL-1β % inhibition is reported as “++ (compound exhibited 25-50% inhibition at 0.3 μM)”.
With CC(C)(C)c1ccc(CN2CCc3c(ncnc3NC(=O)C34CC5CC(CC(C5)C3)C4)C2)cc1 [Compound 572] the IL-1β % inhibition was “++++ (compound exhibited 75% or greater inhibition at 0.3 μM)”.
With COc1ccc(F)c(CN2CCc3c(ncnc3NC(=O)C34CC5CC(CC(C5)C3)C4)C2)c1 [Compound 628] the IL-1β % inhibition was “+ (compound exhibited 0-25% inhibition at 0.3 μM)”.
In the case of O=C(c1cc(F)cc(C(F)(F)F)c1)N1CCc2c(ncnc2NC(=O)C23CC4CC(CC(C4)C2)C3)C1 [Compound 439], the IL-1β % inhibition is reported as “++ (compound exhibited 25-50% inhibition at 0.3 μM)”.
With O=C(Nc1ncnc2c1CCN(CC(c1ccccc1)c1ccccc1)C2)C12CC3CC(CC(C3)C1)C2 [Compound 553] the IL-1β % inhibition was “++ (compound exhibited 25-50% inhibition at 0.3 μM)”.
With O=C(Nc1ncnc2c1CCN(Cc1ccc(Br)nc1)C2)C12CC3CC(CC(C3)C1)C2 [Compound 613] the IL-1β % inhibition was “+ (compound exhibited 0-25% inhibition at 0.3 μM)”.
O=C(Nc1ncnc2c1CCN(Cc1ccc(Oc3ccccc3)cc1)C2)C12CC3CC(CC(C3)C1)C2 [Compound 576] was tested, and the IL-1β % inhibition was “+++ (compound exhibited 50-75% inhibition at 0.3 μM)”.
With COc1ccccc1CN1CCc2c(ncnc2NC(=O)C23CC4CC(CC(C4)C2)C3)C1 [Compound 615] the IL-1β % inhibition was “+++ (compound exhibited 50-75% inhibition at 0.3 μM)”.
O=C(Nc1ncnc2c1CCN(Cc1ccc(Cl)cc1F)C2)C12CC3CC(CC(C3)C1)C2 [Compound 635] was tested, and the IL-1β % inhibition was “+ (compound exhibited 0-25% inhibition at 0.3 μM)”.
In the case of COc1cc(F)c(CN2CCc3c(ncnc3NC(=O)C34CC5CC(CC(C5)C3)C4)C2)cc1OC [Compound 623], the IL-1β % inhibition is reported as “+ (compound exhibited 0-25% inhibition at 0.3 μM)”.
For O=C(Nc1ncnc2c1CCN(S(=O)(=O)c1cc(F)ccc1F)C2)C12CC3CC(CC(C3)C1)C2 [Compound 537], the IL-1β % inhibition was “++ (compound exhibited 25-50% inhibition at 0.3 μM)”.
With O=C(c1ccc2ccccc2n1)N1CCc2c(ncnc2NC(=O)C23CC4CC(CC(C4)C2)C3)C1 [Compound 471] the IL-1β % inhibition was “++ (compound exhibited 25-50% inhibition at 0.3 μM)”.
In the case of O=C(Nc1ncnc2c1CCN(Cc1cccc(Oc3cccc(C(F)(F)F)c3)c1)C2)C12CC3CC(CC(C3)C1)C2 [Compound 626], the IL-1β % inhibition is reported as “++ (compound exhibited 25-50% inhibition at 0.3 μM)”.
For O=C(Nc1ncnc2c1CCN(Cc1cc3c(cc1Cl)OCO3)C2)C12CC3CC(CC(C3)C1)C2 [Compound 599], the IL-1β % inhibition was “+ (compound exhibited 0-25% inhibition at 0.3 μM)”.
O=C(Nc1ncnc2c1CCN(S(=O)(=O)Cc1ccc(Cl)cc1)C2)C12CC3CC(CC(C3)C1)C2 [Compound 522] was tested, and the IL-1β % inhibition was “+++ (compound exhibited 50-75% inhibition at 0.3 μM)”.
COc1ccc(S(=O)(=O)N2CCc3c(ncnc3NC(=O)C34CC5CC(CC(C5)C3)C4)C2)cc1OC [Compound 489] was tested, and the IL-1β % inhibition was “+++ (compound exhibited 50-75% inhibition at 0.3 μM)”.
